Source: patent US20060069132A1, “Azolecarboxamide herbicides” (priority 2004, published 2006)

Key:
[1] = system: barnyardgrass; experiment: Test B flooded paddy test; type: in vivo, Echinochloa crus-galli; settings: 1000 g ai/ha, visual rating, scale 0 to 100 (0 no effect, 100 complete control), 13 to 15 days
Procedure, shortened: (§1)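 Each value is a visual 0–100 response rating taken against controls 13 to 15 days after treatment in the greenhouse. Plants received formulated chemical postemergence at the 1- to 4-leaf stage or, in flooded paddy, at the 2-leaf stage.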

[2] = system: large crabgrass; experiment: Test A pre-/postemergence herbicide test; type: in vivo, Digitaria sanguinalis
Procedure, shortened: (§2)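 Sandy loam soil given preemergence directed spray; plants at 2 to 10 cm, one- to two-leaf stage, sprayed to runoff postemergence, compounds in non-phytotoxic solvent with surfactant. Injury rated visually versus untreated controls after about ten greenhouse days, 0 (no effect) to 100 (complete control); dash means not tested.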

[3] = system: ducksalad; experiment: Test B flooded paddy test; type: in vivo, Heteranthera limosa; settings: 1000 g ai/ha, visual rating, scale 0 to 100 (0 no effect, 100 complete control), 13 to 15 days
Procedure, shortened: as §1

[4] = system: redroot pigweed; experiment: Test A pre-/postemergence herbicide test; type: in vivo, Amaranthus retroflexus
Procedure, shortened: as §2

[5] = system: giant foxtail; experiment: Test B pre-/postemergence herbicide test; type: in vivo, Setaria faberi; settings: for Plant response rating, Foxtail, Giant: preemergence; for Foxtail, Giant plant response rating: postemergence, visual rating, scale 0 (no effect) to 100 (complete control)
Procedure, shortened: (§3)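 Flooded paddy rice and barnyardgrass were treated at the 2-leaf stage; upland plantings received compound either on sown seed or on 1- to 4-leaf seedlings. All were kept 13–15 days in a greenhouse and scored visually, 0–100, relative to untreated plants.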

[6] = system: morningglory; experiment: Test B pre-/postemergence herbicide test; type: in vivo, Ipomoea coccinea; settings: for Plant response rating, Morningglory: preemergence; for Morningglory plant response rating: postemergence, visual rating, scale 0 (no effect) to 100 (complete control)
Procedure, shortened: (§4)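 Evaluation is visual, comparing treated with control plants on a scale where 0 means no effect and 100 means full control. Treatments were preemergence, or postemergence on seedlings 2–18 cm tall, and held 13–15 days in the greenhouse.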

[7] = system: blackgrass; experiment: Test B postemergence herbicide test; type: in vivo, Alopecurus myosuroides; settings: postemergence, visual rating, scale 0 (no effect) to 100 (complete control)
Procedure, shortened: as §1

[8] = system: giant foxtail; experiment: Test A pre-/postemergence herbicide test; type: in vivo, Setaria faberi
Procedure, shortened: as §2

[9] = system: wild oat; experiment: Test B postemergence herbicide test; type: in vivo, Avena fatua; settings: postemergence, visual rating, scale 0 (no effect) to 100 (complete control)
Procedure, shortened: (§5)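 Read-out: visual comparison with controls, scored 0 to 100, where 100 means complete control and 0 no effect. Formulated chemicals were applied postemergence to plants 2–18 cm tall (1- to 4-leaf), or to flooded-paddy plants at the 2-leaf stage, then held 13 to 15 days under glass.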

[10] = system: velvetleaf; experiment: Test B pre-/postemergence herbicide test; type: in vivo, Abutilon theophrasti; settings: for Plant response rating, Velvetleaf: preemergence; for Velvetleaf plant response rating: postemergence, visual rating, scale 0 (no effect) to 100 (complete control)
Procedure, shortened: as §3

[11] = system: large crabgrass; experiment: Test B pre-/postemergence herbicide test; type: in vivo, Digitaria sanguinalis; settings: for Plant response rating, Crabgrass, Large: preemergence; for Crabgrass, Large plant response rating: postemergence, visual rating, scale 0 (no effect) to 100 (complete control)
Procedure, shortened: as §3

[12] = system: cocklebur; experiment: Test B pre-/postemergence herbicide test; type: in vivo, Xanthium strumarium; settings: for Plant response rating, Cocklebur: preemergence; for Cocklebur plant response rating: postemergence, visual rating, scale 0 (no effect) to 100 (complete control)
Procedure, shortened: as §4

[13] = system: corn; experiment: Test B pre-/postemergence herbicide test; type: in vivo, Zea mays; settings: for Plant response rating, Corn: preemergence; for Corn plant response rating: postemergence, visual rating, scale 0 (no effect) to 100 (complete control)
Procedure, shortened: as §3

[14] = system: rice; experiment: Test B pre-/postemergence herbicide test; type: in vivo, Oryza sativa; settings: preemergence
Procedure, shortened: as §4

[15] = system: wheat; experiment: Test B postemergence herbicide test; type: in vivo, Triticum aestivum; parameters: key to Wheat plant response rating: 0 = no effect, 100 = complete control; settings: postemergence, 500 g ai/ha; visual rating, scale 0 (no effect) to 100 (complete control)
Procedure, shortened: as §5

[16] = system: rice; experiment: Test B flooded paddy test; type: in vivo, Oryza sativa; settings: 1000 g ai/ha, visual rating, scale 0 to 100 (0 no effect, 100 complete control), 13 to 15 days
Procedure, shortened: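 After treating 2-leaf paddy plants or 2–18 cm postemergence plants (1 to 4 leaves) with formulated chemical, researchers kept them in a greenhouse for 13–15 days. Effects were judged visually versus controls: 0 indicates none, 100 total control.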

[17] = system: barnyardgrass; experiment: Test B pre-/postemergence herbicide test; type: in vivo, Echinochloa crus-galli; settings: for Plant response rating, Barnyardgrass: preemergence; for Barnyardgrass plant response rating: postemergence, visual rating, scale 0 (no effect) to 100 (complete control)
Procedure, shortened: as §4

[18] = system: small flower umbrella sedge; experiment: Test B flooded paddy test; type: in vivo, Cyperus difformis; settings: 1000 g ai/ha, visual rating, scale 0 to 100 (0 no effect, 100 complete control), 13 to 15 days
Procedure, shortened: as §1

[19] = system: Surinam grass; experiment: Test B pre-/postemergence herbicide test; type: in vivo, Urochloa decumbens; settings: for Plant response rating, Surinam Grass: preemergence; for Surinam Grass plant response rating: postemergence, visual rating, scale 0 (no effect) to 100 (complete control)
Procedure, shortened: as §3

[20] = system: lambsquarters; experiment: Test B pre-/postemergence herbicide test; type: in vivo, Chenopodium album; settings: for Plant response rating, Lambsquarters: preemergence; for Lambsquarters plant response rating: postemergence, visual rating, scale 0 (no effect) to 100 (complete control)
Procedure, shortened: as §3

[21] = system: velvetleaf; experiment: Test A pre-/postemergence herbicide test; type: in vivo, Abutilon theophrasti
Procedure, shortened: as §2

[22] = system: morningglory; experiment: Test A pre-/postemergence herbicide test; type: in vivo, Ipomoea spp.
Procedure, shortened: as §2

[23] = system: barnyardgrass; experiment: Test A pre-/postemergence herbicide test; type: in vivo, Echinochloa crus-galli
Procedure, shortened: as §2

[24] = system: pigweed; experiment: Test B pre-/postemergence herbicide test; type: in vivo, Amaranthus retroflexus; settings: for Plant response rating, Pigweed: preemergence; for Pigweed plant response rating: postemergence, visual rating, scale 0 (no effect) to 100 (complete control)
Procedure, shortened: as §3

[25] = Postemergence, 500 g ai/ha, 0 to 100 scale, 0 no effect, 100 complete control
[26] = Postemergence, 2000 g ai/ha, 0 to 100 scale, 0 no effect, 100 complete control
[27] = Preemergence, 500 g ai/ha, visual rating, 0 to 100 scale (0 no effect, 100 complete control)
[28] = Preemergence, 2000 g ai/ha, visual rating, 0 to 100 scale (0 no effect, 100 complete control)
[29] = preemergence, 500 g ai/ha, visual injury, 0 to 100 scale (0 no effect, 100 complete control)
[30] = 500 g ai/ha, visual rating 0-100, 0 no effect, 100 complete control
[31] = 125 g ai/ha, 0 to 100 scale, 0 is no effect, 100 is complete control

CCn1nc(C(C)(C)C)cc1C(=O)Nc1nc(OC)cc(OC)n1 [Compound 166]
Barnyardgrass plant response rating [1]: 0
Crabgrass, Large plant response rating [2, 25]: 0
Plant response rating, Crabgrass, Large [2, 26]: 0
Crabgrass, Large plant response rating [2, 27]: 0
Crabgrass, Large plant response rating [2, 28]: 30
Ducksalad plant response rating [3]: 0
Pigweed plant response rating [4, 25]: 20
Plant response rating, Pigweed [4, 26]: 25
Pigweed plant response rating [4, 28]: 10
Pigweed plant response rating [4, 29]: 0
Plant response rating, Foxtail, Giant [5, 30]: 0
Foxtail, Giant plant response rating ([5]; 125 g ai/ha): 0
Foxtail, Giant plant response rating ([5]; 500 g ai/ha): 0
Plant response rating, Foxtail, Giant [5, 31]: 0
Plant response rating, Morningglory [6, 30]: 0
Morningglory plant response rating ([6]; 125 g ai/ha): 0
Morningglory plant response rating ([6]; 500 g ai/ha): 0
Plant response rating, Morningglory [6, 31]: 0
Blackgrass plant response rating ([7]; 125 g ai/ha): 0
Blackgrass plant response rating ([7]; 500 g ai/ha): 0
Foxtail, Giant plant response rating [8, 25]: 0
Plant response rating, Foxtail, Giant [8, 26]: 20
Foxtail, Giant plant response rating [8, 27]: 0
Foxtail, Giant plant response rating [8, 28]: 10
Oat, Wild plant response rating ([9]; 125 g ai/ha): 0
Oat, Wild plant response rating ([9]; 500 g ai/ha): 0
Plant response rating, Velvetleaf [10, 30]: 0
Velvetleaf plant response rating ([10]; 125 g ai/ha): 0
Velvetleaf plant response rating ([10]; 500 g ai/ha): 0
Plant response rating, Velvetleaf [10, 31]: 0
Plant response rating, Crabgrass, Large [11, 30]: 0
Crabgrass, Large plant response rating ([11]; 125 g ai/ha): 0
Crabgrass, Large plant response rating ([11]; 500 g ai/ha): 0
Plant response rating, Crabgrass, Large [11, 31]: 0
Plant response rating, Cocklebur [12, 30]: 0
Cocklebur plant response rating ([12]; 125 g ai/ha): 0
Cocklebur plant response rating ([12]; 500 g ai/ha): 0
Plant response rating, Cocklebur [12, 31]: 0
Plant response rating, Corn [13, 30]: 0
Corn plant response rating ([13]; 125 g ai/ha): 0
Corn plant response rating ([13]; 500 g ai/ha): 0
Plant response rating, Corn [13, 31]: 0
Plant response rating, Rice [14, 30]: 0
Plant response rating, Rice [14, 31]: 0
Wheat plant response rating [15]: 0
Rice plant response rating [16]: 0
Plant response rating, Barnyardgrass [17, 30]: 0
Barnyardgrass plant response rating ([17]; 125 g ai/ha): 0
Barnyardgrass plant response rating ([17]; 500 g ai/ha): 0
Plant response rating, Barnyardgrass [17, 31]: 0
Sedge, Umbrella plant response rating [18]: 30
Plant response rating, Surinam Grass [19, 30]: 0
Surinam Grass plant response rating ([19]; 125 g ai/ha): 0
Surinam Grass plant response rating ([19]; 500 g ai/ha): 0
Plant response rating, Surinam Grass [19, 31]: 0
Plant response rating, Lambsquarters [20, 30]: 0
Lambsquarters plant response rating ([20]; 125 g ai/ha): 0
Lambsquarters plant response rating ([20]; 500 g ai/ha): 0
Plant response rating, Lambsquarters [20, 31]: 0
Velvetleaf plant response rating [21, 25]: 20
Plant response rating, Velvetleaf [21, 26]: 30
Velvetleaf plant response rating [21, 28]: 5
Velvetleaf plant response rating [21, 29]: 0
Morningglory plant response rating [22, 25]: 0
Plant response rating, Morningglory [22, 26]: 10
Morningglory plant response rating [22, 27]: 0
Morningglory plant response rating [22, 28]: 5
Barnyardgrass plant response rating [23, 25]: 0
Plant response rating, Barnyardgrass [23, 26]: 10
Barnyardgrass plant response rating [23, 27]: 0
Barnyardgrass plant response rating [23, 28]: 10
Plant response rating, Pigweed [24, 30]: 0
Pigweed plant response rating ([24]; 125 g ai/ha): 0
Pigweed plant response rating ([24]; 500 g ai/ha): 0
Plant response rating, Pigweed [24, 31]: 0
